In patent publication US20060281768A1, “THIENOPYRIMIDINE AND THIENOPYRIDINE KINASE MODULATORS” (priority 2005, published 2006):

Experiments:
[1] = biological target: T1, wild-type FLT3 receptor (Homo sapiens, UniProt P36888); assay: Cell-Based FLT3 Receptor Elisa (Baf3 FLT3 cells, FLT3 phosphorylation); conditions: Flt ligand stimulated FLT3 phosphorylation, 1 hour compound incubation, uncertainty +20%
T1 construct: host or cells: Baf3 (murine B cell lymphoma line)
T1 sequence (P36888 27-993): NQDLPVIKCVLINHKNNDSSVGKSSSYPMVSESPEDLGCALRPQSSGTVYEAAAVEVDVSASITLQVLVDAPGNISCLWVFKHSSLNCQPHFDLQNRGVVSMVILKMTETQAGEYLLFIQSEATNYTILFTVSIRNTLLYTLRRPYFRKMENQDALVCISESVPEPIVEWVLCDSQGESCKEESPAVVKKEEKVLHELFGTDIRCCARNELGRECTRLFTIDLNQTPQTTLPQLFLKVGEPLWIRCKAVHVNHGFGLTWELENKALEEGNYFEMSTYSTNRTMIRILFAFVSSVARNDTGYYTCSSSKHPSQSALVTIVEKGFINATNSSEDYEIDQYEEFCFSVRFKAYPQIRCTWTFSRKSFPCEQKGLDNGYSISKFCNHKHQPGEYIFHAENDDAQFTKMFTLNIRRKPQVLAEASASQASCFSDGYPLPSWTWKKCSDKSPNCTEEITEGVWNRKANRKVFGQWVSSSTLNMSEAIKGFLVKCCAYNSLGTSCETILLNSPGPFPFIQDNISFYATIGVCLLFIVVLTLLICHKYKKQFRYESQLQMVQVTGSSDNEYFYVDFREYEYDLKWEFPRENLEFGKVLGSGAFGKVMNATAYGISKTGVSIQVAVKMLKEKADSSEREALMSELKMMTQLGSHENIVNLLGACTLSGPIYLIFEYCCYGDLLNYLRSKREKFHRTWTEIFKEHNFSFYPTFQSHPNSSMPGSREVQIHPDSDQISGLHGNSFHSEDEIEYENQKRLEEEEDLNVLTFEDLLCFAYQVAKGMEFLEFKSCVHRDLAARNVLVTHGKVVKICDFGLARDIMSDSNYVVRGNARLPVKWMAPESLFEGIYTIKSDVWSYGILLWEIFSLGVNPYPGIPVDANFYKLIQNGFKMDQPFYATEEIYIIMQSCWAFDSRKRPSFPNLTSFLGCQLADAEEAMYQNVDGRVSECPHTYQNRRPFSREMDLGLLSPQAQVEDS
Protocol: Cells overexpressing the FLT3 receptor were obtained from Dr. Michael Heinrich (Oregon Health and Sciences University). The Baf3 FLT3 cell lines were created by stable transfection of parental Baf3 cells (a murine B cell lymphoma line dependent on the cytokine IL-3 for growth) with wild-type FLT3. Cells were selected for their ability to grow in the absence of IL-3 and in the presence of FLT3 ligand.
Baf3 cells were maintained in RPMI 1640 with 10%FCS, penn/strep and 10 ng/mL FLT ligand at 37° C., 5% CO2. To measure direct inhibition of the wild-type FLT3 receptor activity and phosphorylation a sandwich ELISA method was developed similar to those developed for other RTKs (3,4). 200ul of Baf3FLT3 cells (1×10^6/ml) were plated in 96 well dishes in RPM11640 with 0.5% serum and 0.01ng/ml IL-3 for 16 hours prior to 1 hour compound or DMSO vehicle incubation. Cells were treated with 100 ng/ml Flt ligand (R&D Systems Cat# 308-FK) for 10 min. at 37° C. Cells were pelleted, washed and lysed in 100ul HNTG buffer (50 mM Hepes, 150 mM NaCl, 10% Glycerol, 1% Triton -X-100, 10 mM NaF, 1 mM EDTA, 1.5 mM MgCl2, 10 mM NaPyrophosphate) supplemented with phosphatase (Sigma Cat# P2850) and protease inhibitors (Sigma Cat #P8340). Lysates were cleared by centrifugation at 1000×g for 5 minutes at 4° C. Cell lysates were transferred to white wall 96 well microtiter (Costar #9018) plates coated with 50ng/well anti-FLT3 antibody (Santa Cruz Cat# sc-480) and blocked with SeaBlock reagent (Pierce Cat#37527). Lysates were incubated at 4° C. for 2 hours. Plates were washed 3× with 200ul/well PBS/0.1% triton-X-100. Plates are then incubated with 1:8000 dilution of HRP-conjugated anti-phosphotyrosine antibody (Clone 4G10, Upstate Biotechnology Cat#16-105) for 1 hour at room temperature. Plates were washed 3× with 200ul/well PBS/0.1% triton-X-100. Signal detection with Super Signal Pico reagent (Pierce Cat#37070) was done according to manufacturer's instruction with a Berthold microplate luminometer. All data points are an average of triplicate samples. […] Inhibition and IC50 data analysis was done with GraphPad Prism using a non-linear regression fit with a multiparamater, sigmoidal dose-response (variable slope) equation.

[2] = system: MV4-11 cells; assay: Growth inhibition of MV4-11 cells (CellTiterGlo); type: cell-based; conditions: Homo sapiens, 72 hours, uncertainty +20%
Protocol: FLT3 specific growth inhibition was measured in the leukemic cell line MV4-11 (ATCC Number: CRL-9591). […] MV4-11 cells cannot grow and survive without active FLT31TD.
To measure proliferation inhibition by test compounds the luciferase based CellTiterGlo reagent (Promega) was used. Cells are plated at 10,000 cells per well in 100ul of in RPMI media containing penn/strep, 10% FBS and lng/ml GM-CSF or 1 ng/ml IL-3 for MV4-11 and Baf3 cells respectively.
Compound dilutions or 0.1% DMSO (vehicle control) are added to cells and the cells are allowed to grow for 72 hours at standard cell growth conditions (37° C., 5% CO2). Total cell growth is quantified as the difference in luminescent counts (relative light units, RLU) of cell number at Day 0 compared to total cell number at Day 3 (72 hours of growth and/or compound treatment). One hundred percent inhibition of growth is defined as an RLU equivalent to the Day 0 reading. Zero percent inhibition is defined as the RLU signal for the DMSO vehicle control at Day 3 of growth. All data points are an average of triplicate samples. […] Inhibition and IC50 data analysis was done with GraphPad Prism using a non-linear regression fit with a multiparamater, sigmoidal dose-response (variable slope) equation.
MV-411 cells expressed the FLT3 internal tandem duplication mutation, and thus were entirely dependent upon FLT3 activity for growth. […] In contrast, the Baf3 cell proliferations is driven by the cytokine IL-3 and these cells are used as a non-specific toxicity control for test compounds.

[3] = biological target: T2, FLT3 571-993 (Homo sapiens, UniProt P36888); assay: FLT3 Fluorescence Polarization Kinase Assay; type: biochemical; conditions: 10 nM FLT3 571-993, 150 uM ATP, 30 minutes; uncertainty +10%
T2 construct: 10 nM FLT3 571-993, 20 ug/mL poly Glu4Tyr
T2 sequence (P36888 571-993): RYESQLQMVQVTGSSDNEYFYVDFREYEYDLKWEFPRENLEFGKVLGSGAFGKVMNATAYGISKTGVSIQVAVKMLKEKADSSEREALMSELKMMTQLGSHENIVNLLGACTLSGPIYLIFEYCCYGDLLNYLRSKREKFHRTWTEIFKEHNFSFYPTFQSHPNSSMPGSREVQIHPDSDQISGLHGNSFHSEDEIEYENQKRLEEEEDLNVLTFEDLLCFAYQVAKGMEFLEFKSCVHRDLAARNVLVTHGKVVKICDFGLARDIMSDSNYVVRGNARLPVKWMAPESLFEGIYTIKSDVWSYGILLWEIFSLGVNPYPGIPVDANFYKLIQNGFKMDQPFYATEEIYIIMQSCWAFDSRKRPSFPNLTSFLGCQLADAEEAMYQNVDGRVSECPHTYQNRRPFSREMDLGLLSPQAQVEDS
Protocol: The FLT3 FP assay utilizes the fluorescein-labeled phosphopeptide and the anti-phosphotyrosine antibody included in the Panvera Phospho-Tyrosine Kinase Kit (Green) supplied by Invitrogen. When FLT3 phosphorylates poly Glu4Tyr, the fluorescein-labeled phosphopeptide is displaced from the anti-phosphotyrosine antibody by the phosphorylated poly Glu4Tyr, thus decreasing the FP value. The FLT3 kinase reaction is incubated at room temperature for 30 minutes under the following conditions: 10 nM FLT3 571-993, 20 ug/mL poly Glu4Tyr, 150 uM ATP, 5mM MgCl2, 1% compound in DMSO. The kinase reaction is stopped with the addition of EDTA. The fluorescein-labeled phosphopeptide and the anti-phosphotyrosine antibody are added and incubated for 30 minutes at room temperature.
All data points are an average of triplicate samples. Inhibition and IC50 data analysis was done with GraphPad Prism using a non-linear regression fit with a multiparamater, sigmoidal dose-response (variable slope) equation.

Structure (SMILES): O=C(Nc1ccc(OC2CCC2)nc1)OC1CCN(c2ncnc3ccsc23)C1 (stereo not drawn) [Compound 25, (6-Cyclobutoxy-pyridin-3-yl)-carbamic acid 1-thieno[3,2-d]pyrimidin-4-yl-pyrrolidin-3-yl ester]
- IC50 [1]: 1600 nM
- IC50 [2]: 345 nM

Structure (SMILES): CCN(CC)c1ccc(NC(=O)NC2CCN(c3ncnc4ccsc34)C2)cc1 (stereo not drawn) [Compound 18, 1-(4-Diethylamino-phenyl)-3-(1-thieno [3,2-d]pyrimidin-4-yl-pyrrolidin-3-yl)-urea]
- IC50 [1]: 895 nM
- IC50 [2]: 757 nM

Structure (SMILES): O=C(Nc1ccc(Oc2ccccc2)cc1)NC1CCN(c2ncnc3ccsc23)C1 (stereo not drawn) [Compound 13, 1-(4-Phenoxy-phenyl)-3-(1-thieno [3,2-d]pyrimidin-4-yl-pyrrolidin-3-yl)-urea]
- IC50 [1]: > 5000 nM
- IC50 [2]: 881 nM

Structure (SMILES): CC(C)c1ccc(NC(=O)NC2CCN(c3ncnc4sccc34)C2)cc1 (stereo not drawn) [Compound 9, 1-(4-Isopropyl-phenyl)-3-(1-thieno [2,3-d]pyrimidin-4-yl-pyrrolidin-3-yl)-urea]
- IC50 [1]: 55 nM
- IC50 [2]: 1300 nM
- IC50 [3]: 41 nM

Structure (SMILES): O=C(Nc1ccc(OC2CCC2)nc1)NC1CCN(c2ncnc3ccsc23)C1 (stereo not drawn) [Compound 15, 1-(6-Cyclobutoxy-pyridin-3-yl)-3-(1-thieno [3,2-d]pyrimidin-4-yl-pyrrolidin-3-yl)-urea]
- IC50 [1]: 1900 nM
- IC50 [2]: 983 nM

Structure (SMILES): CC(C)c1ccc(NC(=O)NC2CCN(c3ncnc4ccsc34)C2)cc1 (stereo not drawn) [Compound 11, 1-(4-Isopropyl-phenyl)-3-(1-thieno [3,2-d]pyrimidin-4-yl-pyrrolidin-3-yl)-urea]
- IC50 [1]: 108 nM
- IC50 [2]: 671 nM
- IC50 [3]: 77 nM

Structure (SMILES): O=C(Nc1ccc(N2CCCC2)cc1)NC1CCN(c2ncnc3ccsc23)C1 (stereo not drawn) [Compound 19, 1-(4-Pyrrolidin-1-yl-phenyl)-3-(1-thieno [3,2-d]pyrimidin-4-yl-pyrrolidin-3-yl)-urea]
- IC50 [1]: 2900 nM
- IC50 [2]: 850 nM

Structure (SMILES): CC(C)c1ccc(NC(=O)OC2CCN(c3ncnc4ccsc34)C2)cc1 (stereo not drawn) [Compound 5, (4-Isopropyl-phenyl)-carbamic acid 1-thieno [3,2-d]pyrimidin-4-yl-pyrrolidin-3-yl ester]
- IC50 [1]: 22 nM
- IC50 [2]: 1300 nM
- IC50 [3]: 64 nM

Structure (SMILES): O=C(Nc1ccc(Oc2ccccc2)cc1)OC1CCN(c2ncnc3ccsc23)C1 (stereo not drawn) [Compound 26, (4-Phenoxy-phenyl)-carbamic acid 1-thieno[3,2-d]pyrimidin-4-yl-pyrrolidin-3-yl ester]
- IC50 [1]: 390 nM
- IC50 [2]: 953 nM
